Patent US7807439B2, “Staphylococcus aureus-specific detection media and identifying and/or counting method using same” (Biomerieux S.A., priority 2001, dated 2010)

Tests used:
[1] = test system: S. aureus 7509008; assay: Experiment 7: effect of maltose on α-glucosidase activity, weak inocula; assay type: cell-based, Staphylococcus aureus; design: key: 0 corresponds to a lack of activity; 0.1 corresponds to the presence of a trace of coloration; 0.5 corresponds to the presence of a very pale coloration; 1 corresponds to the presence of a clear coloration of weak intensity; 1.5 corresponds to the presence of a coloration which is intermediate between colorations 1 and 2; 2 corresponds to the presence of a true coloration of medium intensity; 2.5 corresponds to the presence of a coloration which is intermediate between colorations 2 and 3; 3 corresponds to the presence of an intense coloration; 3.5 corresponds to the presence of a coloration which is intermediate between colorations 3 and 4; 4 corresponds to the presence of a very intense coloration; conditions: strain 1
Procedure: (§1) The maltose is solubilized in water at a concentration of, for example, 100 g/l, and then a sufficient volume to obtain the final concentrations above is added to the three molten media. The Staphylococcal strains derived from the bioMérieux internal collection were seeded onto each one of the chromogenic media on their own (closely spaced perpendicular streaks over the entire surface of the dish) using a suspension at 0.5 MacFarland diluted to 1/30000. The dishes were incubated at 37° C. for 48 hours. The colonies formed were examined visually after 18, 24 and 48 hours of incubation and the intensity of coloration of the colonies was marked. The coloration was noted and the intensity of these colorations was marked. The reading scale is the same as that used above for tables 2 and 4.

[2] = test system: S. aureus 8311065; assay: as above; assay type: cell-based, Staphylococcus aureus; design: key: 0 corresponds to a lack of activity; 0.1 corresponds to the presence of a trace of coloration; 0.5 corresponds to the presence of a very pale coloration; 1 corresponds to the presence of a clear coloration of weak intensity; 1.5 corresponds to the presence of a coloration which is intermediate between colorations 1 and 2; 2 corresponds to the presence of a true coloration of medium intensity; 2.5 corresponds to the presence of a coloration which is intermediate between colorations 2 and 3; 3 corresponds to the presence of an intense coloration; 3.5 corresponds to the presence of a coloration which is intermediate between colorations 3 and 4; 4 corresponds to the presence of a very intense coloration; conditions: strain 3
Procedure: as §1

[3] = test system: S. aureus 8507276; assay: as above; assay type: cell-based, Staphylococcus aureus; design: key: 0 corresponds to a lack of activity; 0.1 corresponds to the presence of a trace of coloration; 0.5 corresponds to the presence of a very pale coloration; 1 corresponds to the presence of a clear coloration of weak intensity; 1.5 corresponds to the presence of a coloration which is intermediate between colorations 1 and 2; 2 corresponds to the presence of a true coloration of medium intensity; 2.5 corresponds to the presence of a coloration which is intermediate between colorations 2 and 3; 3 corresponds to the presence of an intense coloration; 3.5 corresponds to the presence of a coloration which is intermediate between colorations 3 and 4; 4 corresponds to the presence of a very intense coloration; conditions: strain 2
Procedure: as §1

[4] = test system: S. aureus 0201035; assay: as above; assay type: cell-based, Staphylococcus aureus; design: key: 0 corresponds to a lack of activity; 0.1 corresponds to the presence of a trace of coloration; 0.5 corresponds to the presence of a very pale coloration; 1 corresponds to the presence of a clear coloration of weak intensity; 1.5 corresponds to the presence of a coloration which is intermediate between colorations 1 and 2; 2 corresponds to the presence of a true coloration of medium intensity; 2.5 corresponds to the presence of a coloration which is intermediate between colorations 2 and 3; 3 corresponds to the presence of an intense coloration; 3.5 corresponds to the presence of a coloration which is intermediate between colorations 3 and 4; 4 corresponds to the presence of a very intense coloration; conditions: strain 5
Procedure: as §1

[5] = test system: S. aureus 8507285; assay: as above; assay type: cell-based, Staphylococcus aureus; design: key: 0 corresponds to a lack of activity; 0.1 corresponds to the presence of a trace of coloration; 0.5 corresponds to the presence of a very pale coloration; 1 corresponds to the presence of a clear coloration of weak intensity; 1.5 corresponds to the presence of a coloration which is intermediate between colorations 1 and 2; 2 corresponds to the presence of a true coloration of medium intensity; 2.5 corresponds to the presence of a coloration which is intermediate between colorations 2 and 3; 3 corresponds to the presence of an intense coloration; 3.5 corresponds to the presence of a coloration which is intermediate between colorations 3 and 4; 4 corresponds to the presence of a very intense coloration; conditions: strain 4
Procedure: as §1

[6] = test system: Staphylococcus aureus; assay: Experiment 7: effect of maltose, summary; assay type: cell-based; conditions: in particular critical strains (3, 4, 5 and 6)
Procedure: as §1, with “marked.” for “marked. The coloration was noted and the intensity of these colorations was marked. The reading scale is the same as that used above for tables 2 and 4.”

OC[C@H]1O[C@H](O[C@H]2[C@H](O)[C@@H](O)C(O)O[C@@H]2CO)[C@H](O)[C@@H](O)[C@@H]1O (mixture of isomers) [Maltose, maltose]
Intensity of coloration of the colonies ([1]; 18 h, Maltose 100 mg/l): 1.3
Intensity of coloration of the colonies ([1]; 18 h, Maltose 300 mg/l): 1.3
Intensity of coloration of the colonies ([1]; 18 h, Maltose 400 mg/l): 1.7
Intensity of coloration of the colonies ([1]; 24 h, Maltose 100 mg/l): 1.7
Intensity of coloration of the colonies ([1]; 24 h, Maltose 300 mg/l): 1.7
Intensity of coloration of the colonies ([1]; 24 h, Maltose 400 mg/l): 3
Intensity of coloration of the colonies ([1]; >40 h, Maltose 100 mg/l): 2
Intensity of coloration of the colonies ([1]; >40 h, Maltose 300 mg/l): 2
Intensity of coloration of the colonies ([1]; >40 h, Maltose 400 mg/l): 2.7
Intensity of coloration of the colonies ([2]; 18 h, Maltose 100 mg/l): 1.3
Intensity of coloration of the colonies ([2]; 18 h, Maltose 300 mg/l): 1.3
Intensity of coloration of the colonies ([2]; 18 h, Maltose 400 mg/l): 1.3
Intensity of coloration of the colonies ([2]; 24 h, Maltose 100 mg/l): 1.7
Intensity of coloration of the colonies ([2]; 24 h, Maltose 300 mg/l): 1.7
Intensity of coloration of the colonies ([2]; 24 h, Maltose 400 mg/l): 2
Intensity of coloration of the colonies ([2]; >40 h, Maltose 100 mg/l): 2.7
Intensity of coloration of the colonies ([2]; >40 h, Maltose 300 mg/l): 2.7
Intensity of coloration of the colonies ([2]; >40 h, Maltose 400 mg/l): 2.7
Intensity of coloration of the colonies ([3]; 18 h, Maltose 100 mg/l): 2
Intensity of coloration of the colonies ([3]; 18 h, Maltose 300 mg/l): 2
Intensity of coloration of the colonies ([3]; 18 h, Maltose 400 mg/l): 2
Intensity of coloration of the colonies ([3]; 24 h, Maltose 100 mg/l): 2.7
Intensity of coloration of the colonies ([3]; 24 h, Maltose 300 mg/l): 2.7
Intensity of coloration of the colonies ([3]; 24 h, Maltose 400 mg/l): 2.7
Intensity of coloration of the colonies ([3]; >40 h, Maltose 100 mg/l): 3
Intensity of coloration of the colonies ([3]; >40 h, Maltose 300 mg/l): 3
Intensity of coloration of the colonies ([3]; >40 h, Maltose 400 mg/l): 3
Intensity of coloration of the colonies ([4]; 18 h, Maltose 100 mg/l): 0.3
Intensity of coloration of the colonies ([4]; 18 h, Maltose 300 mg/l): 0.5
Intensity of coloration of the colonies ([4]; 18 h, Maltose 400 mg/l): 0.5
Intensity of coloration of the colonies ([4]; 24 h, Maltose 100 mg/l): 0.5
Intensity of coloration of the colonies ([4]; 24 h, Maltose 300 mg/l): 1
Intensity of coloration of the colonies ([4]; 24 h, Maltose 400 mg/l): 1
Intensity of coloration of the colonies ([4]; >40 h, Maltose 100 mg/l): 0.8
Intensity of coloration of the colonies ([4]; >40 h, Maltose 300 mg/l): 1
Intensity of coloration of the colonies ([4]; >40 h, Maltose 400 mg/l): 1.3
Intensity of coloration of the colonies ([5]; 18 h, Maltose 100 mg/l): 0
Intensity of coloration of the colonies ([5]; 18 h, Maltose 300 mg/l): 0
Intensity of coloration of the colonies ([5]; 18 h, Maltose 400 mg/l): 0
Intensity of coloration of the colonies ([5]; 24 h, Maltose 100 mg/l): 0.3
Intensity of coloration of the colonies ([5]; 24 h, Maltose 300 mg/l): 0.3
Intensity of coloration of the colonies ([5]; 24 h, Maltose 400 mg/l): 0.3
Intensity of coloration of the colonies ([5]; >40 h, Maltose 100 mg/l): 0.8
Intensity of coloration of the colonies ([5]; >40 h, Maltose 300 mg/l): 1
Intensity of coloration of the colonies ([5]; >40 h, Maltose 400 mg/l): 1.3
effect on α-glucosidase expression [6]: activates the α-glucosidase expression
